In patent US20080293712A1, “Benzo[C][2,7]Naphtyridine Derivatives, Methods of Making Thereof and Methods of Use Thereof” (WYETH, priority 2007, published 2008):

What follows are compounds tested against T1, PDK-1 (Homo sapiens, UniProt O15530) (assay: PDK-1 kinase inhibition ELISA assay (phosphorylation of His6-tagged SGK1 S422D by PDK-1)). Settings: not given.
T1 sequence (O15530 1-556): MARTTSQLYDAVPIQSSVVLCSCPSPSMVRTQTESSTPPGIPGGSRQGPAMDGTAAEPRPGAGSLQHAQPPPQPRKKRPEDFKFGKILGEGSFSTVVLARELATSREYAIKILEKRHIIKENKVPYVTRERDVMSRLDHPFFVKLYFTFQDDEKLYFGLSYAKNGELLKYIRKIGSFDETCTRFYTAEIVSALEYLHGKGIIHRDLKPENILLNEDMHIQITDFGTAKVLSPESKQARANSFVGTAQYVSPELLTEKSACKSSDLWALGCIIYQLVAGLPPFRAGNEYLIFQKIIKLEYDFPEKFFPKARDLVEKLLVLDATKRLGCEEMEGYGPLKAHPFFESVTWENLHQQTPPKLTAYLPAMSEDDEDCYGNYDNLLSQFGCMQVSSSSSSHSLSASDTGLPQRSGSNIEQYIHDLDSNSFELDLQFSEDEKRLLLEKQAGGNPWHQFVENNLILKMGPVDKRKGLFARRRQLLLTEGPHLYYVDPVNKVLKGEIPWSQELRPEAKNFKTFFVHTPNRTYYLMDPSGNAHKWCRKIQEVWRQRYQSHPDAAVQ
Type: biochemical

IC50 [µM] | SMILES
0.024 | COc1cc2ncc3c(N)nc(-c4cncc(Nc5ccccc5CCO)c4)cc3c2cc1OC [Ib-197, 2-(2-{[5-(4-amino-8,9-dimethoxybenzo[c][2,7]naphthyridin-2-yl)pyridin-3-yl]amino}phenyl)ethanol]

Same assay, conditions: PDK-1 ELISA, Table 11; read-out: Average IC50

IC50 [µM] | SMILES
0.005 | COc1cc2ncc3c(N)nc(-c4cncc(OC[C@@H](N)CSc5ncc(CO)n5C)c4)cc3c2cc1OC [Ib-167, (2-{[(2R)-2-amino-3-{[5-(4-amino-8,9-dimethoxybenzo[c][2,7]naphthyridin-2-yl)pyridin-3-yl]oxy}propyl]thio}-1-methyl-1H-imidazol-5-yl)methanol]
0.006 | CC[C@H](N)COc1cncc(-c2cc3c(cnc4cc(OC)c(OC)cc43)c(N)n2)c1 [Ib-14, 2-(5-{[(2S)-2-aminobutyl]oxy}pyridin-3-yl)-8,9-dimethoxybenzo[c]-2,7-naphthyridin-4-amine]
0.002 | COc1cc2ncc3c(N)nc(-c4cncc(OC[C@@H](N)COc5nc6ccccc6[nH]5)c4)cc3c2cc1OC [Ib-146, 2-(5-{[(2R)-2-amino-3-(1H-benzimidazol-2-yloxy)propyl]oxy}pyridin-3-yl)-8,9-dimethoxybenzo[c][2,7]naphthyridin-4-amine]
6.92 | COc1cc2c(cc1OCC1CCN(C)CC1)ncc1c(N)nc(-c3ccncc3)cc12 [Ia-22, 9-Methoxy-8-[(1-methylpiperidin-4-yl)methoxy]-2-pyridin-4-ylbenzo[c]-2,7-naphthyridin-4-amine]
1 | COc1cc2ncc3c(N)nc(-c4cccc(C(=O)NCc5cccnc5)c4)cc3c2cc1OC [Ib-248, 3-(4-amino-8,9-dimethoxybenzo[c][2,7]naphthyridin-2-yl)-N-(pyridin-3-ylmethyl)benzamide]
0.081 | COc1cc2ncc3c(N)nc(-c4cncc(Nc5ccc(CN)cc5)c4)cc3c2cc1OC [Ib-192, 2-(5-{[4-(aminomethyl)phenyl]amino}pyridin-3-yl)-8,9-dimethoxybenzo[c][2,7]naphthyridin-4-amine]
1 | COc1cc2ncc3c(N)nc(-c4cccc(C(=O)N5CCN(c6ccccn6)CC5)c4)cc3c2cc1OC [Ib-247, 8,9-dimethoxy-2-{3-[(4-pyridin-2-ylpiperazin-1-yl)carbonyl]phenyl}benzo[c][2,7]naphthyridin-4-amine]
0.032 | COc1cc2ncc3c(N)nc(-c4cncc(OC[C@@H](N)CNCC5(c6ccccc6)CC5)c4)cc3c2cc1OC [Ib-106, (2S)-3-{[5-(4-amino-8,9-dimethoxybenzo[c][2,7]naphthyridin-2-yl)pyridin-3-yl]oxy}-N1-[(1-phenylcyclopropyl)methyl]propane-1,2-diamine]
0.006 | COc1cc2ncc3c(N)nc(-c4cncc(OC[C@@H](N)CNC(C)(C)c5cccnc5)c4)cc3c2cc1OC [Ib-93, (2S)-3-{[5-(4-amino-8,9-dimethoxybenzo[c][2,7]naphthyridin-2-yl)pyridin-3-yl]oxy}-N1-(1-methyl-1-pyridin-3-ylethyl)propane-1,2-diamine]
8.83 | COCCOc1cc2ncc3c(NCc4cccnc4)nc(NCc4cccnc4)cc3c2cc1OC [Compound I-3, 9-methoxy-8-(2-methoxyethoxy)-N,N′-bis(pyridin-3-ylmethyl)benzo[c]-2,7-naphthyridine-2,4-diamine]
0.04 | COc1cc2ncc3c(N)nc(-c4cncc(OC[C@@H](N)CNC5CCC(O)CC5)c4)cc3c2cc1OC (stereo partly drawn) [Ib-91, 4-{[(2S)-2-amino-3-{[5-(4-amino-8,9-dimethoxybenzo[c][2,7]naphthyridin-2-yl)pyridin-3-yl]oxy}propyl]amino}cyclohexanol]
0.026 | CCOC1(OCC)CCN(C[C@H](N)COc2cncc(-c3cc4c(cnc5cc(OC)c(OC)cc54)c(N)n3)c2)CC1 [Ib-5, 2-(5-{[(2S)-2-amino-3-(4,4-diethoxypiperidin-1-yl)propyl]oxy}pyridin-3-yl)-8,9-dimethoxybenzo[c]-2,7-naphthyridin-4-amine]
0.022 | COc1cc2ncc3c(N)nc(-c4cncc(OC[C@@H](N)CNc5ccc(C)c(F)c5)c4)cc3c2cc1OC [Ib-81, (2S)-3-{[5-(4-amino-8,9-dimethoxybenzo[c][2,7]naphthyridin-2-yl)pyridin-3-yl]oxy}-N1-(3-fluoro-4-methylphenyl)propane-1,2-diamine]
1.28 | COCCOc1cc2ncc3c(N)nc(OC)cc3c2cc1OC [Ia-58, 2,9-Dimethoxy-8-(2-methoxyethoxy)benzo[c]-2,7-naphthyridin-4-amine]
0.01 | COc1cc2ncc3c(N)nc(-c4cncc(OC[C@@H](N)CSc5ccncc5)c4)cc3c2cc1OC [Ib-164, 2-(5-{[(2R)-2-amino-3-(pyridin-4-ylthio)propyl]oxy}pyridin-3-yl)-8,9-dimethoxybenzo[c][2,7]naphthyridin-4-amine]
2.44 | COCCOc1cc2ncc3c(N)nc(N4CCC(C)CC4)cc3c2cc1OC [Ia-50, 9-methoxy-8-(2-methoxyethoxy)-2-(4-methylpiperidin-1-yl)benzo[c]-2,7-naphthyridin-4-amine]
0.037 | COc1cc2ncc3c(N)nc(-c4cncc(Nc5ccccc5NC(C)=O)c4)cc3c2cc1OC [Ib-185, N-(2-{[5-(4-amino-8,9-dimethoxybenzo[c][2,7]naphthyridin-2-yl)pyridin-3-yl]amino}phenyl)acetamide]
0.061 | COc1cc2ncc3c(N)nc(-c4cncc(OC[C@@H](N)CNC5CCCCC5)c4)cc3c2cc1OC [Ib-89, (2S)-3-{[5-(4-amino-8,9-dimethoxybenzo[c][2,7]naphthyridin-2-yl)pyridin-3-yl]oxy}-N1-cyclohexylpropane-1,2-diamine]
1 | CCCCNC(=N)c1cncc(-c2cc3c(cnc4cc(OC)c(OC)cc43)c(N)n2)c1 [Ib-268, 5-(4-Amino-8,9-dimethoxybenzo[c][2,7]naphthyridin-2-yl)-N-butylnicotinimidamide]
0.01 | COc1cc2ncc3c(N)nc(-c4cncc(OC[C@@H](N)COc5ccncc5)c4)cc3c2cc1OC [Ib-151, 2-(5-{[(2S)-2-amino-3-(pyridin-4-yloxy)propyl]oxy}pyridin-3-yl)-8,9-dimethoxybenzo[c][2,7]naphthyridin-4-amine]
0.151 | COc1cc2ncc3c(N)nc(-c4cncc(Oc5ccc(N)nc5)c4)cc3c2cc1OC [Ib-172, 2-{5-[(6-Aminopyridin-3-yl)oxy]pyridin-3-yl}-8,9-dimethoxybenzo[c][2,7]naphthyridin-4-amine]
0.092 | COc1cc2ncc3c(N)nc(-c4cncc(OC[C@@H](N)Cn5ccc(=N)cc5)c4)cc3c2cc1OC [Ib-82, 2-(5-{[(2S)-2-amino-3-(4-iminopyridin-1(4H)-yl)propyl]oxy}pyridin-3-yl)-8,9-dimethoxybenzo[c][2,7]naphthyridin-4-amine]
6.42 | COCCOc1cc2ncc3c(N)nc(N4CCOCC4)cc3c2cc1OC [Ia-57, 9-Methoxy-8-(2-methoxyethoxy)-2-morpholin-4-ylbenzo[c]-2,7-naphthyridin-4-amine]
0.067 | COc1cc2ncc3c(N)nc(-c4cncc(Nc5cccc(CO)c5)c4)cc3c2cc1OC [Ib-195, (3-{[5-(4-amino-8,9-dimethoxybenzo[c][2,7]naphthyridin-2-yl)pyridin-3-yl]amino}phenyl)methanol]
0.039 | COc1cc2ncc3c(N)nc(-c4cncc(Nc5cccc(C(N)=O)c5)c4)cc3c2cc1OC [Ib-188, 3-{[5-(4-amino-8,9-dimethoxybenzo[c][2,7]naphthyridin-2-yl)pyridin-3-yl]amino}benzamide]
